Test results as given in PubChem BioAssay (NCI).
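Five compound concentrations were applied to cells in 96-well plates for 48 hours; endpoints were derived by simple linear interpolation of the resulting dose-response curve. TGI: concentration producing complete growth inhibition.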

Columns and labels:
Experiment in all cases: inhibition of tumour cell growth, NCI panel, 48 h
SW-620 colon = test system: SW-620 colon
SN12C renal = test system: SN12C renal
HOP-92 NSCLC = test system: HOP-92 NSCLC
SF-268 CNS = test system: SF-268 CNS
UO-31 renal = test system: UO-31 renal
MDA-MB-231 breast = test system: MDA-MB-231 breast
SNB-19 CNS = test system: SNB-19 CNS
EKVX NSCLC = test system: EKVX NSCLC
SF-539 CNS = test system: SF-539 CNS
NCI-H522 lung = test system: NCI-H522 lung

Row | Compound | TGI (SW-620 colon) | TGI (SN12C renal) | TGI (HOP-92 NSCLC) | TGI (SF-268 CNS) | TGI (UO-31 renal) | TGI (MDA-MB-231 breast) | TGI (SNB-19 CNS) | TGI (EKVX NSCLC) | TGI (SF-539 CNS) | TGI (NCI-H522 lung)
1 | N#CCCN(CCC#N)c1ccc(/C=C2\N=C(c3ccccc3)N(c3ccc(F)cc3)C2=O)cc1 | > 100 µM | > 100 µM | > 100 µM | > 100 µM | > 100 µM | > 100 µM | > 100 µM | > 100 µM | > 100 µM | –
2 | C1=C(c2ccccc2)SC(N2CCCCC2)S1 (stereo unspecified) | > 100 µM | > 100 µM | > 100 µM | > 100 µM | > 100 µM | – | > 100 µM | > 100 µM | > 100 µM | > 100 µM
3 | COc1cc(/C=C2\C(=O)N(c3cccc([N+](=O)[O-])c3)C(c3ccccc3)S2(=O)=O)cc(OC)c1OC (stereo unspecified) | > 100 µM | > 100 µM | > 100 µM | – | > 100 µM | > 100 µM | > 100 µM | > 100 µM | – | > 100 µM
4 | Cn1nc2ccc([N+](=O)[O-])c(Cn3nnc4ccccc43)c2n1 | > 100 µM | > 100 µM | > 100 µM | > 100 µM | > 100 µM | > 100 µM | > 100 µM | > 100 µM | > 100 µM | –
5 | O=C1[C@H](O)[C@@H]2C(O)O[C@H]3[C@@H]2N1C[C@H]3[Si](c1ccccc1)(c1ccccc1)c1ccccc1 (stereo partly specified) | > 100 µM | – | – | > 100 µM | > 100 µM | > 100 µM | > 100 µM | > 100 µM | > 100 µM | –
6 | CCOC(=O)C(C#N)(Cc1c[nH]c2ccccc12)NC(C)=O (stereo unspecified) | > 100 µM | > 100 µM | > 100 µM | > 100 µM | > 100 µM | – | – | > 100 µM | – | > 100 µM
7 | CCN(CCCOc1ccccc1)CCN(CC)CCCOc1ccccc1 | 70.5 µM | 44.8 µM | – | 28.4 µM | 22.3 µM | 39.7 µM | 23.4 µM | 28.9 µM | 24.7 µM | 28.9 µM
8 | CCOC(=O)c1ccc(-n2[nH]nc(C(N)=O)c2=O)cc1 | > 100 µM | > 100 µM | – | > 100 µM | > 100 µM | > 100 µM | > 100 µM | > 100 µM | – | > 100 µM
9 | N=C1C(=N)c2ccccc2-c2ccccc21.[Cl-].[Ru+2].c1ccc(-c2ccccn2)nc1.c1ccc(-c2ccccn2)nc1 | > 100 µM | > 100 µM | > 100 µM | > 100 µM | > 100 µM | – | – | > 100 µM | > 100 µM | > 100 µM
10 | CCC/C(Cl)=N\OC(=O)Nc1ccc(F)cc1 | 27.2 µM | 31 µM | 16.5 µM | > 65 µM | 31.5 µM | 33.1 µM | 40.9 µM | 32.6 µM | – | 4.12 µM
11 | Nc1n(CC(=O)c2ccccc2)nc2sc(-c3ccccc3)n[n+]12 | 36.6 µM | > 100 µM | – | 62.5 µM | 40.3 µM | – | > 100 µM | > 100 µM | 25.3 µM | 34.4 µM
12 | CC(=O)NC1C(OCc2ccccc2)OC(CO)C(O)C1OCC(=O)N1CCCC1C(=O)N[C@@H](CCC(=O)NCCCCNc1c2ccccc2nc2cccc([N+](=O)[O-])c12)C(N)=O (stereo partly specified) | 65.7 µM | > 100 µM | 28.7 µM | > 100 µM | > 100 µM | – | 62.4 µM | > 100 µM | > 100 µM | –
13 | CCNCCNC(=O)c1ccc(I)cc1 | > 100 µM | > 100 µM | > 100 µM | > 100 µM | > 100 µM | – | > 100 µM | > 100 µM | > 100 µM | –
14 | Cc1ccc2c(c1)-c1nc(N)c(C#N)c(-c3ccc(Cl)cc3)c1CCS2(=O)=O | > 100 µM | > 100 µM | > 100 µM | > 100 µM | 86.2 µM | > 100 µM | > 100 µM | – | – | > 100 µM
15 | Cn1c(=O)c2[nH]c(N/N=N/c3nncs3)nc2n(C)c1=O | > 100 µM | > 100 µM | > 100 µM | > 100 µM | > 100 µM | > 100 µM | > 100 µM | > 100 µM | > 100 µM | –
16 | C[C@H](c1ccccc1)N1C(=O)[C@@H](O)[C@H]1[C@H](CO)OCc1ccccc1 | > 100 µM | > 100 µM | > 100 µM | > 100 µM | > 100 µM | > 100 µM | > 100 µM | > 100 µM | – | –
17 | COc1ccc(N2CC(=O)N(C(=O)COc3ccc(OCC(=O)N4C(=O)CN(c5ccc(OC)cc5)C4=S)cc3)C2=S)cc1 | > 100 µM | > 100 µM | > 100 µM | > 100 µM | > 100 µM | > 100 µM | > 100 µM | > 100 µM | – | > 100 µM
